Reference: patent US9523691B2, “Use of the olfactomedin-4 protein (OLFM4) in colorectal cancer diagnosis” (INSTITUT DE CANCEROLOGIE DE L'OUEST, priority 2011, dated 2016)

System: wild type HCT116 cells
Assay: Clonogenic cell survival assay, OLFM4 added to the medium with genotoxic treatment
Assay type: cell-based, human
Conditions: 10 days
Procedure: The influence of OLFM4 following genotoxic treatments in HCT116 OLFM4 inducible cells was evaluated by clonogenic assay. Cells were incubated with 50 ng/ml of doxycyclin, and then 24 hr later treated with oxaliplatin or sn38 at the indicated concentration for 10 days. The colonies were stained with crystal violet and counted by QuantityOne software (Biorad). B. OLFM4 overexpressed in COS7 cells, was added at approximately 3 ng/ml to oxaliplatin and sn38 treatment in the wild type HCT116 cells for 10 days. The colonies were stained and count as above. The histograms shown are representative of three individual experiments.
The human colon adenocarcinoma cell line HCT116 (American Type Culture Collection, ATCC) were maintained in antibiotic-free RPMI 1640 medium (Lonza). Cultures were supplemented with 10% fetal bovine serum. […]
HCT116 stable OLFM4 cells were seeded at 300 cells into 6 well cell culture plates with RPMI 1640 medium supplement with 3% fetal bovine serum and incubated at 37° C. in a 5% CO2 atmosphere. […] The number of colonies exceeding 50 cells was visualized with a Bio-Rad Chemi Doc XRS Imaging device and counted using Quantity One imaging software (Bio-Rad). The survival fraction was determined as the ratio of the number of colonies observed without doxycycline to the number of cells with doxycycline, adjusted to the plating efficiency.

Question: With “OLFM4: Secreted N-glycosylated protein of 510 residues, overexpressed in COS7 cells and added to culture medium” as the substance, how does the “resistance to oxaliplatin (colony survival, clonogenic assay)” value (OLFM4 overexpressed in COS7 cells added at approximately 3 ng/ml to oxaliplatin treatment) read?
Answer: promotes resistance

Question: What about the “resistance to sn38 (colony survival, clonogenic assay)” value (OLFM4 overexpressed in COS7 cells added at approximately 3 ng/ml to sn38 treatment) of the same substance?
Answer: promotes resistance
